Consider 26 compounds from US11229636B2, “Substituted tetrahydroquinolinone compounds as ROR gamma modulators” (Aurigene Discovery Technologies Limited, priority 2015, dated 2022).

Structures are written as SMILES.

The target in this assay is ROR gamma ligand binding domain (Homo sapiens (Human), UniProt P51449). Put plainly: ROR gamma luciferase reporter assay (GAL4-ROR gamma LBD, HEK293 cells). Format: cell-based. The following applies: 48 hours treatment, read-out: RORγ luciferase Reporter assay: IC50 (nM) (in range). How it is done:
The Ligand Binding Domain (LBD) of ROR gamma was cloned into pFN26A (BIND) hRluc-neo Flexi vector (Promega) which expresses a fusion protein comprised of a DNA binding domain of the yeast GAL4 gene, a linker segment and ROR gamma ligand binding domain. For the reporter assay 0.02×10^6 HEK293 cells were seeded per well in a 96 well plate in complete media and incubated overnight in an incubator with 5% CO2 at 37° C. before transfection. Cells were then co-transfected with pFN26A hRluc-neo Flexi vector containing the LBD of ROR gamma and pGL4.35 [luc2P/9XGAL4 UAS/Hygro] Vector (Promega) in low serum media. Post transfection and recovery, cells were treated with the test compounds for 48 hours. The assay was terminated using the Bright-Glo Luciferase assay system from Promega and the Luminescence was measured using a luminescence reader. The luminescence values were used to calculate the potency of the compounds.
On the technique in general: Reporter assays use an easily measured gene product as a stand-in for the process of interest.

Sequence of ROR gamma ligand binding domain (P51449 269-508): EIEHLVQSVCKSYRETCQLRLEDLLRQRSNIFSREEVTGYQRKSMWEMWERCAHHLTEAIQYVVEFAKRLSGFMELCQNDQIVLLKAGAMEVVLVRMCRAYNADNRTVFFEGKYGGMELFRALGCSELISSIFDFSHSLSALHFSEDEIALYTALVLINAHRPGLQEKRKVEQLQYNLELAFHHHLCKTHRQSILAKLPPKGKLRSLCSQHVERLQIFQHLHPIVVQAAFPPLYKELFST

What is called IC50 is the concentration needed to halve the response being measured. For `CCS(=O)(=O)c1ccc(CC(=O)Nc2ccc3c(n2)CCC(C)(c2nc(C)cn4cc(C)nc24)C3=O)cc1` (centres unmarked) [Compound 51, N-(6-(2,6-dimethylimidazo[1,2-a]pyrazin-8-yl)-6-methyl-5-oxo-5,6,7,8-tetrahydroquinolin-2-yl)-2-(4-(ethylsulfonyl)phenyl)acetamide], the 50% inhibitory concentration (IC50) is < 100 nM.

Regarding `CCS(=O)(=O)c1ccc(CNC(=O)c2ccc3c(n2)CCC(C)(c2cc(C)nc(C)n2)C3=O)cc1` (single isomer, unassigned) [compound 125, 6-(2,6-dimethylpyrimidin-4-yl)-N-(4-(ethylsulfonyl)benzyl)-6-methyl-5-oxo-5,6,7,8-tetrahydroquinoline-2-carboxamide], the 50% inhibitory concentration (IC50) is < 100 nM.

With `CCS(=O)(=O)c1ccc(CC(=O)Nc2ccc3c(n2)CCC(C)(c2ccc(Cl)nn2)C3=O)cc1` (centres unmarked) [Compound 93, N-(6-(6-chloropyridazin-3-yl)-6-methyl-5-oxo-5,6,7,8-tetrahydroquinolin-2-yl)-2-(4-(ethylsulfonyl)phenyl)acetamide], the half-inhibitory concentration (IC50) is > 500 nM.

With `CCS(=O)(=O)c1ccc(CC(=O)Nc2cc(C)c3c(n2)CCC(C)(c2nccn4cc(C)nc24)C3=O)cc1` (centres unmarked) [Compound 52, N-(4,6-dimethyl-6-(2-methylimidazo[1,2-a]pyrazin-8-yl)-5-oxo-5,6,7,8-tetrahydroquinolin-2-yl)-2-(4-(ethylsulfonyl)phenyl)acetamide], the IC50 was < 100 nM.

In the case of `CCS(=O)(=O)c1ccc(CC(=O)Nc2ccc3c(n2)CCC(C)(c2cc(C)nc(OC)n2)C3=O)cc1` (centres unmarked) [Compound 64, 2-(4-(ethylsulfonyl)phenyl)-N-(6-(2-methoxy-6-methylpyrimidin-4-yl)-6-methyl-5-oxo-5,6,7,8-tetrahydroquinolin-2-yl)acetamide], the IC50 was < 100 nM.

On to `CCS(=O)(=O)c1ccc(CC(=O)Nc2ccc3c(n2)C(C)CC(C)(c2nccn4ccnc24)C3=O)cc1` (centres unmarked) [Compound 48, 2-(4-(ethylsulfonyl)phenyl)-N-(6-(imidazo[1,2-a]pyrazin-8-yl)-6,8-dimethyl-5-oxo-5,6,7,8-tetrahydroquinolin-2-yl)acetamide], for which the IC50 was > 500 nM.

As to `CCS(=O)(=O)c1ccc(CC(=O)Nc2ccc3c(n2)CCC(C)(c2cc(C)nc(C)n2)C3=O)nc1` (single isomer, unassigned) [compound 124, N-(6-(2,6-dimethylpyrimidin-4-yl)-6-methyl-5-oxo-5,6,7,8-tetrahydroquinolin-2-yl)-2-(5-(ethylsulfonyl)pyridin-2-yl)acetamide], the IC50 lay within 100 to 500 nM.

Regarding `CCS(=O)(=O)c1ccc(CC(=O)Nc2cc3c(cn2)C(=O)C(C)(c2cc(C)nc(C)n2)CC3)cc1` (centres unmarked) [Compound 83, N-(7-(2,6-dimethylpyrimidin-4-yl)-7-methyl-8-oxo-5,6,7,8-tetrahydroisoquinolin-3-yl)-2-(4-(ethylsulfonyl)phenyl)acetamide], the IC50 fell in the range of 100 to 500 nM.

Turning to `CCS(=O)(=O)c1ccc(CC(=O)Nc2ccc3c(n2)CCC(C)(c2nc(C)cn4ccnc24)C3=O)cc1` (single isomer, unassigned) [compound 118, 2-(4-(ethylsulfonyl)phenyl)-N-(6-methyl-6-(6-methylimidazo[1,2-a]pyrazin-8-yl)-5-oxo-5,6,7,8-tetrahydroquinolin-2-yl)acetamide], the half-inhibitory concentration (IC50) is < 100 nM.

Turning to `CCS(=O)(=O)c1ccc(CC(=O)Nc2ccc3c(n2)CCC(C)(c2nccn4cc(C(F)(F)F)nc24)C3=O)cc1` (centres unmarked) [Compound 72, 2-(4-(ethylsulfonyl)phenyl)-N-(6-methyl-5-oxo-6-(2-(trifluoromethyl)-imidazo[1,2-a]pyrazin-8-yl)-5,6,7,8-tetrahydroquinolin-2-yl)acetamide], the IC50 was < 100 nM.

`CCS(=O)(=O)c1ccc(CC(=O)Nc2cc(C)c3c(n2)CCC(C)(c2ccc(C(F)(F)F)nn2)C3=O)cc1` (centres unmarked) [Compound 53, N-(4,6-dimethyl-5-oxo-6-(6-(trifluoromethyl)pyridazin-3-yl)-5,6,7,8-tetrahydroquinolin-2-yl)-2-(4-(ethylsulfonyl)phenyl)acetamide]: the IC50 is > 500 nM.

Turning to `CCS(=O)(=O)c1ccc(CC(=O)Nc2ccc3c(n2)CCC(C)(c2nccn4cc(C)nc24)C3=O)c(F)c1` (centres unmarked) [Compound 58, 2-(4-(ethylsulfonyl)-2-fluorophenyl)-N-(6-methyl-6-(2-methylimidazo[1,2-a]pyrazin-8-yl)-5-oxo-5,6,7,8-tetrahydroquinolin-2-yl)acetamide], the IC50 was 100 to 500 nM.

In the case of `CCS(=O)(=O)c1ccc(CC(=O)Nc2ccc3c(n2)CCC(C)(c2nccn4c(C5CC5)cnc24)C3=O)cc1` (centres unmarked) [Compound 71, N-(6-(3-cyclopropylimidazo[1,2-a]pyrazin-8-yl)-6-methyl-5-oxo-5,6,7,8-tetrahydroquinolin-2-yl)-2-(4-(ethylsulfonyl)phenyl)acetamide], the IC50 was in the range of 100 to 500 nM.

With `CCS(=O)(=O)c1ccc(CC(=O)Nc2cc(C)c3c(n2)CCC(C)(c2ccc4nc(C)cn4n2)C3=O)cc1` (centres unmarked) [Compound 75, N-(4,6-dimethyl-6-(2-methylimidazo[1,2-b]pyridazin-6-yl)-5-oxo-5,6,7,8-tetrahydroquinolin-2-yl)-2-(4-(ethylsulfonyl)phenyl)acetamide], the concentration for half-maximal inhibition (IC50) is 100 to 500 nM.

With `CCS(=O)(=O)c1ccc(CC(=O)Nc2cc(C)c3c(n2)CCC(C)(c2ccc(N(C)C)nn2)C3=O)cc1` (centres unmarked) [Compound 98, N-(6-(6-(dimethylamino)pyridazin-3-yl)-4,6-dimethyl-5-oxo-5,6,7,8-tetrahydroquinolin-2-yl)-2-(4-(ethylsulfonyl)phenyl)acetamide], the IC50 lay within 100 to 500 nM.

In the case of `CCS(=O)(=O)c1ccc(CC(=O)Nc2ccc3c(n2)CCC(C)(c2ncc(C)n4ccnc24)C3=O)cc1` (centres unmarked) [Compound 68, 2-(4-(ethylsulfonyl)phenyl)-N-(6-methyl-6-(5-methylimidazo[1,2-a]pyrazin-8-yl)-5-oxo-5,6,7,8-tetrahydroquinolin-2-yl)acetamide], the IC50 lay within 100 to 500 nM.

With `Cc1cn2ccnc(C3(C)CCc4nc(NC(=O)Cc5ccc(S(C)(=O)=O)cc5)ccc4C3=O)c2n1` (centres unmarked) [Compound 59, N-(6-methyl-6-(2-methylimidazo[1,2-a]pyrazin-8-yl)-5-oxo-5,6,7,8-tetrahydroquinolin-2-yl)-2-(4-(methylsulfonyl)phenyl)acetamide], the IC50 was > 500 nM.

In the case of `CCS(=O)(=O)c1ccc(CC(=O)Nc2ccc3c(n2)CCC(C)(c2nccn4c(F)cnc24)C3=O)cc1` (centres unmarked) [Compound 97, 2-(4-(ethylsulfonyl)phenyl)-N-(6-(3-fluoroimidazo[1,2-a]pyrazin-8-yl)-6-methyl-5-oxo-5,6,7,8-tetrahydroquinolin-2-yl)acetamide], the IC50 is > 500 nM.

Consider `CCS(=O)(=O)c1ccc(CC(=O)Nc2cc(C)c3c(n2)CCC(C)(c2ccc(OC)[n+]([O-])n2)C3=O)cc1` (centres unmarked) [Compound 94, 3-(2-(2-(4-(ethylsulfonyl)phenyl)acetamido)-4,6-dimethyl-5-oxo-5,6,7,8-tetrahydroquinolin-6-yl)-6-methoxypyridazine 1-oxide], for which the half-inhibitory concentration (IC50) is > 500 nM.

Consider `CCS(=O)(=O)c1ccc(CC(=O)Nc2ccc3c(n2)CCC(C)(c2nccn4c(C(F)(F)F)cnc24)C3=O)cc1` (centres unmarked) [Compound 74, 2-(4-(ethylsulfonyl)phenyl)-N-(6-methyl-5-oxo-6-(3-(trifluoromethyl)-imidazo[1,2-a]pyrazin-8-yl)-5,6,7,8-tetrahydroquinolin-2-yl)acetamide], for which the 50% inhibitory concentration (IC50) is < 100 nM.

In the case of `CCS(=O)(=O)c1ccc(CC(=O)Nc2cc(C)c3c(n2)CCC(C)(c2cc(OC)cnn2)C3=O)cc1` (centres unmarked) [Compound 73, 2-(4-(ethylsulfonyl)phenyl)-N-(6-(5-methoxypyridazin-3-yl)-4,6-dimethyl-5-oxo-5,6,7,8-tetrahydroquinolin-2-yl)acetamide], the IC50 was > 500 nM.

For the compound `CCS(=O)(=O)c1ccc(CC(=O)Nc2cc(C)c3c(n2)CCC(C)(c2cc(C4CC4)c(OC)nn2)C3=O)cc1` (centres unmarked) [Compound 76, N-(6-(5-cyclopropyl-6-methoxypyridazin-3-yl)-4,6-dimethyl-5-oxo-5,6,7,8-tetrahydroquinolin-2-yl)-2-(4-(ethylsulfonyl)phenyl)acetamide], the IC50 is 100 to 500 nM.

As for `CCS(=O)(=O)c1ccc(CC(=O)Nc2ccc3c(n2)CCC(C)(c2ccc(OC(C)C)nn2)C3=O)cc1` (centres unmarked) [Compound 57, 2-(4-(ethylsulfonyl)phenyl)-N-(6-(6-isopropoxypyridazin-3-yl)-6-methyl-5-oxo-5,6,7,8-tetrahydroquinolin-2-yl)acetamide], the IC50 was > 500 nM.

Regarding `CCS(=O)(=O)c1ccc(CC(=O)Nc2ccc3c(n2)CC(C)C(C)(c2cc(C)nc(C)n2)C3=O)cc1` (centres unmarked) [Compound 81, N-(6-(2,6-dimethylpyrimidin-4-yl)-6,7-dimethyl-5-oxo-5,6,7,8-tetrahydroquinolin-2-yl)-2-(4-(ethylsulfonyl)phenyl)acetamide], the half-maximal inhibitory concentration (IC50) is < 100 nM.

With `CCS(=O)(=O)c1ccc(CC(=O)Nc2cc(C)c3c(n2)CCC(C)(c2ccc(=O)n(C)n2)C3=O)cc1` (centres unmarked) [Compound 70, N-(4,6-dimethyl-6-(1-methyl-6-oxo-1,6-dihydropyridazin-3-yl)-5-oxo-5,6,7,8-tetrahydroquinolin-2-yl)-2-(4-(ethylsulfonyl)phenyl)acetamide], the IC50 is > 500 nM.

For the compound `CCS(=O)(=O)c1ccc(CC(=O)Nc2ccc3c(n2)CCC(C)(c2nccn4c(F)c(C)nc24)C3=O)cc1` (centres unmarked) [Compound 66, 2-(4-(ethylsulfonyl)phenyl)-N-(6-(3-fluoro-2-methylimidazo[1,2-a]pyrazin-8-yl)-6-methyl-5-oxo-5,6,7,8-tetrahydroquinolin-2-yl)acetamide], the half-maximal inhibitory concentration (IC50) is < 100 nM.
